Experimental data published in ChEMBL document CHEMBL4308841, “Synthesis, in vitro antiproliferative activity, and kinase inhibitory effects of pyrazole-containing diarylureas and diarylamides” (Eur J Med Chem, 2018).

What was measured:
Assay type in all cases: functional
HL-60(TB) = assay: Growth inhibition of human HL-60(TB) cells assessed as cell growth at 10 uM incubated for 48 hrs by sulforhodamine B assay relative to control; settings: HL-60, 48 h, read-out: Activity
MOLT-4 = assay: Growth inhibition of human MOLT4 cells assessed as cell growth at 10 uM incubated for 48 hrs by sulforhodamine B assay relative to control; settings: MOLT-4, 48 h, read-out: Activity
RPMI-8226 = assay: Growth inhibition of human RPMI8226 cells assessed as cell growth at 10 uM incubated for 48 hrs by sulforhodamine B assay relative to control; settings: RPMI-8226, 48 h, read-out: Activity
SR = assay: Growth inhibition of human SR cells assessed as cell growth at 10 uM incubated for 48 hrs by sulforhodamine B assay relative to control; settings: read-out: Activity
A549 = assay: Growth inhibition of human A549/ATCC cells assessed as cell growth at 10 uM incubated for 48 hrs by sulforhodamine B assay relative to control; settings: A549, 48 h, read-out: Activity
NCI-H226 = assay: Growth inhibition of human NCI-H226 cells assessed as cell growth at 10 uM incubated for 48 hrs by sulforhodamine B assay relative to control; settings: NCI-H226, 48 h, read-out: Activity
HCC 2998 = assay: Growth inhibition of human HCC2998 cells assessed as cell growth at 10 uM incubated for 48 hrs by sulforhodamine B assay relative to control; settings: HCC 2998, 48 h, read-out: Activity
SW-620 = assay: Growth inhibition of human SW620 cells assessed as cell growth at 10 uM incubated for 48 hrs by sulforhodamine B assay relative to control; settings: SW-620, 48 h, read-out: Activity
SF-268 = assay: Growth inhibition of human SF268 cells assessed as cell growth at 10 uM incubated for 48 hrs by sulforhodamine B assay relative to control; settings: SF-268, 48 h, read-out: Activity
SF-295 = assay: Growth inhibition of human SF295 cells assessed as cell growth at 10 uM incubated for 48 hrs by sulforhodamine B assay relative to control; settings: SF-295, 48 h, read-out: Activity
SNB-19 = assay: Growth inhibition of human SNB19 cells assessed as cell growth at 10 uM incubated for 48 hrs by sulforhodamine B assay relative to control; settings: SNB-19, 48 h, read-out: Activity
SNB-75 = assay: Growth inhibition of human SNB75 cells assessed as cell growth at 10 uM incubated for 48 hrs by sulforhodamine B assay relative to control; settings: SNB-75, 48 h, read-out: Activity
U-251 = assay: Growth inhibition of human U251 cells assessed as cell growth at 10 uM incubated for 48 hrs by sulforhodamine B assay relative to control; settings: U-251, 48 h, read-out: Activity
MDA-MB-435 = assay: Growth inhibition of human MDA-MB-435 cells assessed as cell growth at 10 uM incubated for 48 hrs by sulforhodamine B assay relative to control; settings: MDA-MB-435, 48 h, read-out: Activity
UACC-257 = assay: Growth inhibition of human UACC257 cells assessed as cell growth at 10 uM incubated for 48 hrs by sulforhodamine B assay relative to control; settings: UACC-257, 48 h, read-out: Activity
UACC-62 = assay: Growth inhibition of human UACC62 cells assessed as cell growth at 10 uM incubated for 48 hrs by sulforhodamine B assay relative to control; settings: UACC-62, 48 h, read-out: Activity
IGROV-1 = assay: Growth inhibition of human IGROV1 cells assessed as cell growth at 10 uM incubated for 48 hrs by sulforhodamine B assay relative to control; settings: IGROV-1, 48 h, read-out: Activity
OVCAR-3 = assay: Growth inhibition of human OVCAR3 cells assessed as cell growth at 10 uM incubated for 48 hrs by sulforhodamine B assay relative to control; settings: OVCAR-3, 48 h, read-out: Activity
OVCAR-4 = assay: Growth inhibition of human OVCAR4 cells assessed as cell growth at 10 uM incubated for 48 hrs by sulforhodamine B assay relative to control; settings: OVCAR-4, 48 h, read-out: Activity
OVCAR-5 = assay: Growth inhibition of human OVCAR5 cells assessed as cell growth at 10 uM incubated for 48 hrs by sulforhodamine B assay relative to control; settings: OVCAR-5, 48 h, read-out: Activity
OVCAR-8 = assay: Growth inhibition of human OVCAR8 cells assessed as cell growth at 10 uM incubated for 48 hrs by sulforhodamine B assay relative to control; settings: OVCAR-8, 48 h, read-out: Activity
NCI/ADR-RES = assay: Growth inhibition of human NCI/ADR-RES cells assessed as cell growth at 10 uM incubated for 48 hrs by sulforhodamine B assay relative to control; settings: read-out: Activity
SK-OV-3 = assay: Growth inhibition of human SKOV3 cells assessed as cell growth at 10 uM incubated for 48 hrs by sulforhodamine B assay relative to control; settings: SK-OV-3, 48 h, read-out: Activity
786-0 = assay: Growth inhibition of human 786-0 cells assessed as cell growth at 10 uM incubated for 48 hrs by sulforhodamine B assay relative to control; settings: 786-0, 48 h, read-out: Activity
A498 = assay: Growth inhibition of human A498 cells assessed as cell growth at 10 uM incubated for 48 hrs by sulforhodamine B assay relative to control; settings: A498, 48 h, read-out: Activity
ACHN = assay: Growth inhibition of human ACHN cells assessed as cell growth at 10 uM incubated for 48 hrs by sulforhodamine B assay relative to control; settings: read-out: Activity
CAKI-1 = assay: Growth inhibition of human Caki1 cells assessed as cell growth at 10 uM incubated for 48 hrs by sulforhodamine B assay relative to control; settings: CAKI-1, 48 h, read-out: Activity
RXF 393 = assay: Growth inhibition of human RXF393 cells assessed as cell growth at 10 uM incubated for 48 hrs by sulforhodamine B assay relative to control; settings: RXF 393, 48 h, read-out: Activity
SN12C = assay: Growth inhibition of human SN12C cells assessed as cell growth at 10 uM incubated for 48 hrs by sulforhodamine B assay relative to control; settings: read-out: Activity
DU-145 = assay: Growth inhibition of human DU145 cells assessed as cell growth at 10 uM incubated for 48 hrs by sulforhodamine B assay relative to control; settings: DU-145, 48 h, read-out: Activity
MCF7 = assay: Growth inhibition of human MCF7 cells assessed as cell growth at 10 uM incubated for 48 hrs by sulforhodamine B assay relative to control; settings: MCF7, 48 h, read-out: Activity
Hs-578T = assay: Growth inhibition of human Hs578T cells assessed as cell growth at 10 uM incubated for 48 hrs by sulforhodamine B assay relative to control; settings: read-out: Activity
T47D = assay: Growth inhibition of human T47D cells assessed as cell growth at 10 uM incubated for 48 hrs by sulforhodamine B assay relative to control; settings: read-out: Activity

Row | SMILES | growth at 10 µM (HL-60(TB)) [%] | growth at 10 µM (MOLT-4) [%] | growth at 10 µM (RPMI-8226) [%] | growth at 10 µM (SR) [%] | growth at 10 µM (A549) [%] | growth at 10 µM (NCI-H226) [%] | growth at 10 µM (HCC 2998) [%] | growth at 10 µM (SW-620) [%] | growth at 10 µM (SF-268) [%] | growth at 10 µM (SF-295) [%] | growth at 10 µM (SNB-19) [%] | growth at 10 µM (SNB-75) [%] | growth at 10 µM (U-251) [%] | growth at 10 µM (MDA-MB-435) [%] | growth at 10 µM (UACC-257) [%] | growth at 10 µM (UACC-62) [%] | growth at 10 µM (IGROV-1) [%] | growth at 10 µM (OVCAR-3) [%] | growth at 10 µM (OVCAR-4) [%] | growth at 10 µM (OVCAR-5) [%] | also measured
1 | COc1cc(Cl)cc(-c2nn(-c3cccc(NC(=O)Nc4cc(C(F)(F)F)cc(C(F)(F)F)c4)c3)cc2-c2ccncc2)c1 | -20.1 | -24.6 | -17.5 | -37.9 | 5.14 | -5.97 | 9.5 | 7.18 | 14.2 | -43.2 | 26.1 | 11.3 | -58 | -19.4 | -25.6 | -21.2 | 23 | -1.62 | 11.8 | 21.6 | growth at 10 µM (OVCAR-8): -2.46%; growth at 10 µM (NCI/ADR-RES): 2.37%; growth at 10 µM (SK-OV-3): 6.84%; growth at 10 µM (786-0): -26.9%; growth at 10 µM (A498): -21.6%; growth at 10 µM (ACHN): 10.3%; growth at 10 µM (CAKI-1): 8.99%; growth at 10 µM (RXF 393): -29.2%; growth at 10 µM (SN12C): 9.32%; growth at 10 µM (DU-145): 13.1%; growth at 10 µM (MCF7): 3.81%; growth at 10 µM (Hs-578T): 5.82%; growth at 10 µM (T47D): 6.56%
2 | COc1cc(Cl)cc(-c2nn(-c3cccc(NC(=O)Nc4ccc(Cl)c(Cl)c4)c3)cc2-c2ccncc2)c1 | -5.12 | -16.1 | -4.44 | -18.4 | 11.3 | 7.27 | 26.7 | 13.3 | 25.3 | -2.42 | 17.8 | 16.2 | 3.01 | 0.46 | -11.4 | 4.38 | 36.7 | 4.11 | 13.3 | 37.8 | growth at 10 µM (OVCAR-8): 1.93%; growth at 10 µM (NCI/ADR-RES): 8.59%; growth at 10 µM (SK-OV-3): 14.2%; growth at 10 µM (786-0): 19.6%; growth at 10 µM (A498): -9.54%; growth at 10 µM (ACHN): 9.65%; growth at 10 µM (CAKI-1): 7.49%; growth at 10 µM (RXF 393): 4.46%; growth at 10 µM (SN12C): 15.5%; growth at 10 µM (DU-145): 12.1%; growth at 10 µM (MCF7): 4.66%; growth at 10 µM (Hs-578T): 28.5%; growth at 10 µM (T47D): 18.6%
